{
  "source": "paper PMC9138505",
  "about": "“Small Molecule 20S Proteasome Enhancer Regulates MYC Protein Stability and Exhibits Antitumor Activity in Multiple Myeloma” (Biomedicines, 2022)",
  "system": "RPMI-8226 cells",
  "experiment": "Gene expression profiling, NanoString nCounter PanCancer Pathways Panel, ROSALIND analysis",
  "assay_type": "cell-based, human",
  "conditions": "RPMI-8226, TCH-165 samples 1-3",
  "method": "RPMI-8226 cells were treated with vehicle or TCH-165 (10 μM) for 4 h. Total RNA was obtained using the mirVana miRNA Isolation Kit, with phenol (Thermofisher Scientific; AM1560; Waltham, MA, USA). Total RNA was quantified by Qubit (Thermofisher Scientific; Q32855; Waltham, MA, USA). and gene expression was evaluated against the nCounter® PanCancer Pathways Panel^TM according to the standard NanoString protocol.\nData were analyzed by ROSALIND® [36] with a hyperscale architecture developed by ROSALIND, Inc. (San Diego, CA, USA). Normalization, fold changes and p-values were calculated using criteria provided by NanoString. ROSALIND follows the nCounter® Advanced Analysis protocol of dividing counts within a lane by the geometric mean of the normalizer probes from the same lane. Housekeeping probes to be used for normalization are selected based on the geNorm algorithm, as implemented in the NormqPCR R library. Fold changes and p-values are calculated using the fast method as described in the nCounter Advanced Analysis 2.0 User Manual. The p-value adjustment is performed using the Benjamini–Hochberg method of estimating false discovery rates (FDR). Clustering of genes for the final heatmap of differentially expressed genes was done using the PAM (Partitioning Around Medoids) method using the fpc R library. Hypergeometric distribution was used to analyze the enrichment of pathways, gene ontology, domain structure and other ontologies. The topGO R library was used to determine local similarities and dependencies between GO terms in order to perform Elim pruning correction. Several database sources were referenced for enrichment analysis, including Interpro [40], NCBI [41], MSigDB [42, 43], REACTOME [44], WikiPathways. Enrichment was calculated relative to a set of background genes relevant to the experiment.",
  "note": "Where “and” joins values, the source holds several entries; their conditions need not be identical. Identical values can stand only once.",
  "data": [
    {"smiles": "CCOC(=O)[C@]1(c2ccccc2)N=C(c2ccc(OC)cc2)N(Cc2ccccc2)[C@@H]1c1ccc(NCc2ccccc2)cc1", "note": "[TCH-165]", "values": [
      {"measurement": "FGF2 normalized gene expression", "value": "5.208 and 4.324 and 4.613"},
      {"measurement": "FGF3 normalized gene expression", "value": "4.401 and 4.524 and 4.693"},
      {"measurement": "FGF4 normalized gene expression", "value": "5.044 and 4.927 and 4.613"},
      {"measurement": "FGF5 normalized gene expression", "value": "2.723 and 2.569 and 3.0682"},
      {"measurement": "FGF6 normalized gene expression", "value": "3.86 and 3.891 and 3.184"},
      {"measurement": "FGF7 normalized gene expression", "value": "4.86 and 4.996 and 4.653"},
      {"measurement": "FGF8 normalized gene expression", "value": "4.723 and 3.569 and 3.805"},
      {"measurement": "FGF9 normalized gene expression", "value": "7.044 and 7.045 and 7.083"},
      {"measurement": "FGF10 normalized gene expression", "value": "5.308 and 4.614 and 4.975"},
      {"measurement": "FGF11 normalized gene expression", "value": "5.53 and 5.154 and 4.975"},
      {"measurement": "FGF12 normalized gene expression", "value": "3.86 and 4.7789 and 4.769"},
      {"measurement": "FGF13 normalized gene expression", "value": "8.993 and 9.004 and 8.947"},
      {"measurement": "FGF14 normalized gene expression", "value": "4.86 and 4.891 and 4.769"},
      {"measurement": "FGF16 normalized gene expression", "value": "4.793 and 4.996 and 4.731"},
      {"measurement": "FGF17 normalized gene expression", "value": "2.723 and 3.154 and 3.653"},
      {"measurement": "FGF18 normalized gene expression", "value": "4.101 and 2.3768 and 3.39"},
      {"measurement": "FGF19 normalized gene expression", "value": "3.86 and 4.029 and 4.1271"},
      {"measurement": "FGF20 normalized gene expression", "value": "4.571 and 4.817 and 4.876"},
      {"measurement": "FGF21 normalized gene expression", "value": "5.955 and 5.636 and 5.712"},
      {"measurement": "FGF22 normalized gene expression", "value": "5.827 and 5.569 and 5.098"},
      {"measurement": "FGF23 normalized gene expression", "value": "5.208 and 5.124 and 5.341"},
      {"measurement": "FGFR1 normalized gene expression", "value": "4.488 and 4.324 and 4.528"},
      {"measurement": "FGFR2 normalized gene expression", "value": "6.015 and 5.836 and 5.461"},
      {"measurement": "FGFR3 normalized gene expression", "value": "5.488 and 4.614 and 4.9095"},
      {"measurement": "FGFR4 normalized gene expression", "value": "4.401 and 3.891 and 4.1271"},
      {"measurement": "FIGF normalized gene expression", "value": "4.101 and 3.817 and 2.943"},
      {"measurement": "FLNA normalized gene expression", "value": "9.475 and 9.497 and 9.54"},
      {"measurement": "FLNC normalized gene expression", "value": "5.924 and 5.979 and 5.528"},
      {"measurement": "FLT1 normalized gene expression", "value": "3.401 and 4.029 and 3.653"},
      {"measurement": "FLT3 normalized gene expression", "value": "3.401 and 2.739 and 3.0682"},
      {"measurement": "FN1 normalized gene expression", "value": "13.4955 and 13.457 and 13.4134"},
      {"measurement": "FOS normalized gene expression", "value": "7.234 and 7.603 and 7.613"},
      {"measurement": "FOSL1 normalized gene expression", "value": "5.892 and 5.759 and 5.712"},
      {"measurement": "FOXL2 normalized gene expression", "value": "4.924 and 4.569 and 4.528"},
      {"measurement": "FOXO4 normalized gene expression", "value": "6.986 and 7.124 and 6.787"},
      {"measurement": "FST normalized gene expression", "value": "5.308 and 5.093 and 5.184"},
      {"measurement": "FUBP1 normalized gene expression", "value": "10.9203 and 10.8641 and 10.8501"},
      {"measurement": "FUT8 normalized gene expression", "value": "8.45 and 8.328 and 8.338"},
      {"measurement": "FZD2 normalized gene expression", "value": "4.571 and 4.817 and 5.211"},
      {"measurement": "FZD3 normalized gene expression", "value": "7.195 and 7.427 and 7.378"},
      {"measurement": "FZD7 normalized gene expression", "value": "4.986 and 4.7789 and 4.805"},
      {"measurement": "FZD8 normalized gene expression", "value": "4.401 and 3.569 and 4.1271"},
      {"measurement": "FZD9 normalized gene expression", "value": "5.208 and 4.029 and 4.341"},
      {"measurement": "FZD10 normalized gene expression", "value": "4.86 and 3.962 and 4.437"},
      {"measurement": "GADD45A normalized gene expression", "value": "9.132 and 9.301 and 9.248"},
      {"measurement": "GADD45B normalized gene expression", "value": "7.884 and 7.9093 and 7.914"},
      {"measurement": "GADD45G normalized gene expression", "value": "4.101 and 4.569 and 4.693"},
      {"measurement": "GAS1 normalized gene expression", "value": "5.259 and 4.029 and 4.653"},
      {"measurement": "GATA1 normalized gene expression", "value": "5.156 and 4.476 and 4.437"},
      {"measurement": "GATA2 normalized gene expression", "value": "4.924 and 4.476 and 4.0068"},
      {"measurement": "GATA3 normalized gene expression", "value": "2.986 and 4.029 and 4.1271"},
      {"measurement": "GHR normalized gene expression", "value": "4.208 and 4.657 and 4.876"},
      {"measurement": "GLI1 normalized gene expression", "value": "4.793 and 4.996 and 5.1271"},
      {"measurement": "GLI3 normalized gene expression", "value": "7.234 and 6.709 and 6.884"},
      {"measurement": "GNA11 normalized gene expression", "value": "6.86 and 6.739 and 6.602"},
      {"measurement": "GNAQ normalized gene expression", "value": "4.86 and 5.324 and 4.653"},
      {"measurement": "GNAS normalized gene expression", "value": "10.7886 and 10.9336 and 10.8358"},
      {"measurement": "GNG4 normalized gene expression", "value": "4.208 and 4.569 and 4.9095"},
      {"measurement": "GNG7 normalized gene expression", "value": "5.488 and 5.452 and 4.975"},
      {"measurement": "GNGT1 normalized gene expression", "value": "4.86 and 4.699 and 4.341"},
      {"measurement": "GPC4 normalized gene expression", "value": "4.986 and 4.324 and 4.238"},
      {"measurement": "GRB2 normalized gene expression", "value": "11.2288 and 11.2361 and 11.1936"},
      {"measurement": "GRIA3 normalized gene expression", "value": "5.101 and 4.029 and 4.39"},
      {"measurement": "GRIN1 normalized gene expression", "value": "6.182 and 5.836 and 5.975"},
      {"measurement": "GRIN2A normalized gene expression", "value": "5.955 and 5.678 and 5.437"},
      {"measurement": "GRIN2B normalized gene expression", "value": "3.401 and 3.476 and 2.943"},
      {"measurement": "GSK3B normalized gene expression", "value": "8.384 and 8.242 and 8.36"},
      {"measurement": "GTF2H3 normalized gene expression", "value": "9.358 and 9.284 and 9.271"},
      {"measurement": "GZMB normalized gene expression", "value": "4.649 and 4.029 and 4.5707"},
      {"measurement": "H2AFX normalized gene expression", "value": "9.249 and 8.96 and 9.049"},
      {"measurement": "H3F3A normalized gene expression", "value": "13.5139 and 13.5375 and 13.5217"},
      {"measurement": "HDAC1 normalized gene expression", "value": "9.665 and 9.611 and 9.679"},
      {"measurement": "HDAC2 normalized gene expression", "value": "11.0236 and 10.9286 and 10.9442"},
      {"measurement": "HDAC4 normalized gene expression", "value": "6.986 and 6.798 and 6.778"},
      {"measurement": "HDAC5 normalized gene expression", "value": "8.03 and 8.069 and 8.049"},
      {"measurement": "HDAC6 normalized gene expression", "value": "7.658 and 7.699 and 7.643"},
      {"measurement": "HELLS normalized gene expression", "value": "9.578 and 9.451 and 9.503"},
      {"measurement": "HES1 normalized gene expression", "value": "4.924 and 4.855 and 4.613"},
      {"measurement": "HGF normalized gene expression", "value": "8.129 and 8.033 and 8.145"},
      {"measurement": "HHEX normalized gene expression", "value": "5.986 and 6.012 and 5.943"},
      {"measurement": "HIST1H3B normalized gene expression", "value": "15.271 and 14.9487 and 14.86"},
      {"measurement": "HIST1H3G normalized gene expression", "value": "14.1552 and 13.7784 and 13.7341"},
      {"measurement": "HIST1H3H normalized gene expression", "value": "15.3267 and 14.9451 and 14.9056"},
      {"measurement": "HMGA1 normalized gene expression", "value": "10.7304 and 10.6516 and 10.6817"},
      {"measurement": "HMGA2 normalized gene expression", "value": "4.86 and 4.657 and 4.0068"},
      {"measurement": "HNF1A normalized gene expression", "value": "5.53 and 4.962 and 4.769"},
      {"measurement": "HOXA9 normalized gene expression", "value": "5.355 and 5.242 and 5.291"},
      {"measurement": "HOXA10 normalized gene expression", "value": "5.61 and 5.592 and 5.437"},
      {"measurement": "HOXA11 normalized gene expression", "value": "4.986 and 5.093 and 5.414"},
      {"measurement": "HPGD normalized gene expression", "value": "4.208 and 4.3768 and 5.0068"}
    ]}
  ]
}
